Reference: PubChem BioAssay (NCI)
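Abbreviation: GI50, concentration required for 50% inhibition of growth. At the TGI there is no net growth.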

Key:
Assay in all cases: inhibition of tumour cell growth, NCI panel, 384-well format
HT29 colon = system: HT29 colon
NCI-H23 lung = system: NCI-H23 lung
SNB-19 CNS = system: SNB-19 CNS
MALME-3M melanoma = system: MALME-3M melanoma
OVCAR-5 ovarian = system: OVCAR-5 ovarian
SK-MEL-28 melanoma = system: SK-MEL-28 melanoma
MOLT-4 leukemia = system: MOLT-4 leukemia
KM12 colon = system: KM12 colon
U251 glioblastoma = system: U251 glioblastoma
SF-539 CNS = system: SF-539 CNS
TK-10 renal = system: TK-10 renal
OVCAR-3 ovarian = system: OVCAR-3 ovarian
SN12C renal = system: SN12C renal
SK-MEL-2 melanoma = system: SK-MEL-2 melanoma
BT-549 breast = system: BT-549 breast
A498 renal = system: A498 renal
K-562 leukemia = system: K-562 leukemia
NCI-H522 lung = system: NCI-H522 lung
UACC-62 melanoma = system: UACC-62 melanoma
SK-OV-3 ovarian = system: SK-OV-3 ovarian
SNB-75 CNS = system: SNB-75 CNS
HS 578T breast = system: HS 578T breast
PC-3 prostate = system: PC-3 prostate
NCI-H460 NSCLC = system: NCI-H460 NSCLC
786-0 renal = system: 786-0 renal
UO-31 renal = system: UO-31 renal
HCT-116 colon = system: HCT-116 colon
MDA-MB-435 melanoma = system: MDA-MB-435 melanoma
OVCAR-4 ovarian = system: OVCAR-4 ovarian
HL-60(TB) leukemia = system: HL-60(TB) leukemia
MDA-MB-231 breast = system: MDA-MB-231 breast
MDA-MB-468 breast = system: MDA-MB-468 breast
DU-145 prostate = system: DU-145 prostate
NCI-H322M lung = system: NCI-H322M lung
CAKI-1 renal = system: CAKI-1 renal
IGROV1 ovarian = system: IGROV1 ovarian
M14 melanoma = system: M14 melanoma
SR leukemia = system: SR leukemia
ACHN renal = system: ACHN renal
SW-620 colon = system: SW-620 colon
A549 NSCLC = system: A549 NSCLC
SF-268 CNS = system: SF-268 CNS
HOP-92 NSCLC = system: HOP-92 NSCLC

Compound `C=CC(=O)Nc1cc2c(Nc3ccc(OCc4ccccn4)c(Cl)c3)ncnc2cc1OCCN1CCOCC1` has a GI50 (HT29 colon) of 1.59 µM, a TGI (HT29 colon) of 2.99 µM and a GI50 (NCI-H23 lung) of 1.69 µM. For the same compound, the TGI (NCI-H23 lung) was 4.25 µM, the GI50 (SNB-19 CNS) was 5.38 µM and the TGI (SNB-19 CNS) was 18.3 µM. For the same compound, the GI50 (MALME-3M melanoma) was 1.7 µM, the TGI (MALME-3M melanoma) was 3.09 µM and the GI50 (OVCAR-5 ovarian) was 3.49 µM. The TGI (OVCAR-5 ovarian) was over 100 µM, the GI50 (SK-MEL-28 melanoma) was 1.55 µM and the TGI (SK-MEL-28 melanoma) was 2.91 µM. For the same compound, the GI50 (MOLT-4 leukemia) was 1.58 µM, the TGI (MOLT-4 leukemia) was 2.96 µM and the GI50 (KM12 colon) was 1.75 µM. For the same compound, the TGI (KM12 colon) was 3.23 µM, the GI50 (U251 glioblastoma) was 1.52 µM and the TGI (U251 glioblastoma) was 2.93 µM. For the same compound, the GI50 (SF-539 CNS) was 1.25 µM, the TGI (SF-539 CNS) was 2.51 µM and the GI50 (TK-10 renal) was 0.0305 µM. The TGI (TK-10 renal) was 1.54 µM, the GI50 (OVCAR-3 ovarian) was 0.282 µM and the TGI (OVCAR-3 ovarian) was 1.88 µM. The GI50 (SN12C renal) was 1.1 µM, the TGI (SN12C renal) was 2.73 µM and the GI50 (SK-MEL-2 melanoma) was 1.3 µM. For the same compound, the TGI (SK-MEL-2 melanoma) was 2.58 µM, the GI50 (BT-549 breast) was 1.16 µM and the TGI (BT-549 breast) was 2.38 µM. It also gave a GI50 (A498 renal) of 0.744 µM, a TGI (A498 renal) of 2.2 µM and a GI50 (K-562 leukemia) of 1.49 µM. It also gave a TGI (K-562 leukemia) of 2.95 µM, a GI50 (NCI-H522 lung) of 0.131 µM and a TGI (NCI-H522 lung) of 1.43 µM. It also gave a GI50 (UACC-62 melanoma) of 1.38 µM, a TGI (UACC-62 melanoma) of 2.68 µM and a GI50 (SK-OV-3 ovarian) of 0.0537 µM. It also gave a TGI (SK-OV-3 ovarian) of 2.35 µM, a GI50 (SNB-75 CNS) of 1.39 µM and a TGI (SNB-75 CNS) of 2.92 µM. For the same compound, the GI50 (HS 578T breast) was 0.364 µM, the TGI (HS 578T breast) was 2.08 µM and the GI50 (PC-3 prostate) was 1.65 µM. It also gave a TGI (PC-3 prostate) of 3.11 µM, a GI50 (NCI-H460 NSCLC) of 1.53 µM and a TGI (NCI-H460 NSCLC) of 3.16 µM. It also gave a GI50 ([…]-0 renal) of 1.35 µM, a TGI (786-0 renal) of 2.67 µM and a GI50 (UO-31 renal) of 1.08 µM. It also gave a TGI (UO-31 renal) of 2.33 µM, a GI50 (HCT-116 colon) of 1.48 µM and a TGI (HCT-116 colon) of 2.92 µM. The GI50 (MDA-MB-435 melanoma) was 1.54 µM, the TGI (MDA-MB-435 melanoma) was 2.96 µM and the GI50 (OVCAR-4 ovarian) was 1.13 µM. It also gave a TGI (OVCAR-4 ovarian) of 2.5 µM, a GI50 (HL-60(TB) leukemia) of 1.53 µM and a TGI (HL-60(TB) leukemia) of 2.9 µM. For the same compound, the GI50 (MDA-MB-231 breast) was 1.28 µM, the TGI (MDA-MB-231 breast) was 2.91 µM and the TGI (MDA-MB-468 breast) was 0.0405 µM. It also gave a GI50 (DU-145 prostate) of 0.499 µM, a TGI (DU-145 prostate) of 2.12 µM and a GI50 (NCI-H322M lung) of 0.0183 µM. For the same compound, the TGI (NCI-H322M lung) was 1.14 µM, the GI50 (CAKI-1 renal) was 1.18 µM and the TGI (CAKI-1 renal) was 2.42 µM. It also gave a GI50 (IGROV1 ovarian) of 0.027 µM, a TGI (IGROV1 ovarian) of 1.08 µM and a GI50 (M14 melanoma) of 1.65 µM. It also gave a TGI (M14 melanoma) of 3.02 µM, a GI50 (SR leukemia) of 1.52 µM and a TGI (SR leukemia) of 2.89 µM. The GI50 (ACHN renal) was 0.098 µM, the TGI (ACHN renal) was 1.69 µM and the GI50 (SW-620 colon) was 1.73 µM. The TGI (SW-620 colon) was 3.16 µM, the GI50 (A549 NSCLC) was 3.11 µM and the GI50 (SF-268 CNS) was 1.42 µM. For the same compound, the TGI (SF-268 CNS) was 2.81 µM, the GI50 (HOP-92 NSCLC) was 1.37 µM and the TGI (HOP-92 NSCLC) was 2.78 µM.
